Usually EC50 stands for the midpoint of the concentration-response curve.

This note sets out measurements from patent publication US20220033407A1, “N-(pyridin-2-ylsulfonyl)cyclopropanecarboxamide Derivatives and their Use in the Treatment of Disease” (NOVARTIS AG, priority 2018, published 2022).

The target in one assay is T1, delF508-CFTR-HRP (Homo sapiens, UniProt P13569, DEL508-508).
T1 construct: expressed in transfected cells
As to the kind of experiment: Measurement of delF508-CFTR-HRP surface expression in CFBE41o- cells (HRP luminescence).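 As to DelF508-CFTR-HRP Amax %: percent efficacy relative to a reference CFTR corrector compound.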 The conditions noted are these: for EC50: mean of at least two replicates; for Emax: CFBE41o-, read-out: DelF508-CFTR-HRP Amax %. It counts as cell-based. The gist of the method: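 EC50 derived by logistic regression of triplicate surface-HRP luminescence, plate-normalized to the lowest-concentration median. Doxycycline (500 ng/mL, 48 h) induced delF508-CFTR-HRP in CFBE41o- cells; compounds then applied 24 h at 37° C, 10 μM top, 3-fold over 10 points.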

The next assay addresses T2, delF508-CFTR (Homo sapiens, UniProt P13569, DEL508-508).
T2 construct: functional activity of the CFTR channel (Chloride ion transport) in patient derived primary human bronchial epithelial cells; host or cells: patient-derived primary human bronchial epithelial cells (HBECs), delF508-CFTR
As to the kind of experiment: delF508-CFTR functional activity in primary human bronchial epithelial cells (HBECs), Multi-Transepithelial Clamp Circuit (MTECC-24) assay, equivalent short circuit current. The conditions noted are these: primary CF HBECs; for MTECC24 CFHBEC-Amax %: relative to reference combination 2 μM 3-(6-(1-(2,2-difluorobenzo[d][1,3]dioxol-5-yl)cyclopropane-1-carboxamido)-3-methylpyridin-2-yl)benzoic acid (24 h) + 0.5 μM N-(2,4-di-tert-butyl-5-hydroxyphenyl)-4-oxo-1,4-dihydroquinoline-3-carboxamide; for EC50: test compound added 24 h before assay, potentiator (S)-3-amino-6-methoxy-N-(3,3,3-trifluoro-2-hydroxy-2-methylpropyl)-5-(trifluoromethyl)picolinamide present at assay, mean of at least two replicates, read-out: MTECC24 CFHBEC-EC50. It counts as cell-based. A digest of the protocol:
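Compound acted as corrector on differentiated primary delF508-CFTR bronchial cultures, first 24 h basolaterally, then 45 min both sides before reading. Equivalent short circuit current was recorded during sequential forskolin and potentiator addition. EC50 came from 10-point, 1-in-3 dilution curves against the 0.1% DMSO baseline.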

T2 sequence (P13569 with tags, fused parts or gaps DEL508-508): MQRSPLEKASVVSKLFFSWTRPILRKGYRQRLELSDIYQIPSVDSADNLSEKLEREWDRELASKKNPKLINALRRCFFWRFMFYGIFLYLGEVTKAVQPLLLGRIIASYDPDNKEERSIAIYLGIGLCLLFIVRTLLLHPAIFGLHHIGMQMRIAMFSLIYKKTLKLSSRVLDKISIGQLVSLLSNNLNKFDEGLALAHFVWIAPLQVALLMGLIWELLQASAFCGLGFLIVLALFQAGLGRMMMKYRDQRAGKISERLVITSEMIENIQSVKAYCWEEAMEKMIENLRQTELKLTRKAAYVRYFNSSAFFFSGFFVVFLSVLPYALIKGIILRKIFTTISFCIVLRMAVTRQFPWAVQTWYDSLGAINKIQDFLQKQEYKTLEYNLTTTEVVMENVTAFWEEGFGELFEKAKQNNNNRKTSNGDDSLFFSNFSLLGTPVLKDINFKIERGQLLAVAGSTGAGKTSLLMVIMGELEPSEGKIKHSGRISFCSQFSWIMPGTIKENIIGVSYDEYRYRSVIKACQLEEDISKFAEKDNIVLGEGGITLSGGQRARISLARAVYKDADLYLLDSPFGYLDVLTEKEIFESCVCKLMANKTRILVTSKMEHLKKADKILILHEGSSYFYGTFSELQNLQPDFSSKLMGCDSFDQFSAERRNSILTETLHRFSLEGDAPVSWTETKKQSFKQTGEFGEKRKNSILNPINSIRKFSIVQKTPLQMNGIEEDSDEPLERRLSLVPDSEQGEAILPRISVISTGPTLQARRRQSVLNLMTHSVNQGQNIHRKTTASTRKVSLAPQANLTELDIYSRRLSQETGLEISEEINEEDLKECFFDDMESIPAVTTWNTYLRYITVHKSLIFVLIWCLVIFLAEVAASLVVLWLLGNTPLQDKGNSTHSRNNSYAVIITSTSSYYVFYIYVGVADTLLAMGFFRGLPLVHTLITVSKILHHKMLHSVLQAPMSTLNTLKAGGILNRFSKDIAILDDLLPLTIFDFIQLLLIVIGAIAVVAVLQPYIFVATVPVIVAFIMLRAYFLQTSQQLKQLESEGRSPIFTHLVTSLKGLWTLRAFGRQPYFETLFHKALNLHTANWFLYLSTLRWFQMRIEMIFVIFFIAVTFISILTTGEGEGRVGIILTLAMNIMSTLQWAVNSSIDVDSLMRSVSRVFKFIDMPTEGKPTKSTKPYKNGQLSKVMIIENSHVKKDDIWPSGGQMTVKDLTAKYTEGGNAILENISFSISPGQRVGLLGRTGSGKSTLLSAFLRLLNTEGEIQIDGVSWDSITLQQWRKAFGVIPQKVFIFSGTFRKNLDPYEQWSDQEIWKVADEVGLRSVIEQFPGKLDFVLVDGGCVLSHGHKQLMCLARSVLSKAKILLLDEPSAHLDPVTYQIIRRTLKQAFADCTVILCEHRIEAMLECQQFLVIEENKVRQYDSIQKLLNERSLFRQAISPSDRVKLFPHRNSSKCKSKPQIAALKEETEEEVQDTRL
T1 sequence (P13569 with tags, fused parts or gaps DEL508-508): as above

Take `Cc1ccc(C2CCC(C)(C)OC2)c(OC2(C(=O)NS(=O)(=O)c3cccc(N4CCC(O)(c5ccc(Cl)cc5)CC4)n3)CC2)c1` (single isomer, unassigned) [Example 11-1-1, N-((6-(4-(4-chlorophenyl)-4-hydroxypiperidin-1-yl)pyridin-2-yl)sulfonyl)-1-(2-(6,6-dimethyltetrahydro-2H-pyran-3-yl)-5-methylphenoxy)cyclopropane-1-carboxamide]: at delF508-CFTR-HRP, the “DelF508-CFTR-HRP Amax %” value is listed as 920.6% and a half-maximal effect (EC50) was put at 920 nM. In addition, at delF508-CFTR, the “MTECC24 CFHBEC-Amax %” value is listed as 148.8% and the half-maximal effective concentration (EC50) was 394 nM.
With `Cc1ccc(C2CCCCC2)c(OC2(C(=O)NS(=O)(=O)c3cccc(N4CCC(CO)(NC(=O)OC(C)(C)C)CC4)n3)CC2)c1` [Example 2-22, Tert-butyl (1-(6-(N-(1-(2-cyclohexyl-5-methylphenoxy)cyclopropanecarbonyl)sulfamoyl)pyridin-2-yl)-4-(hydroxymethyl)piperidin-4-yl)carbamates], at delF508-CFTR-HRP, the Emax was found to be 674% and the EC50 was 2240 nM. Besides, on delF508-CFTR, the “MTECC24 CFHBEC-Amax %” value turned out to be 90% and the EC50 worked out at 17 nM.
For `O=C(NS(=O)(=O)c1cccc(N2CC[C@H](O)C2)n1)C1(Oc2cc(Cl)ccc2N2CC3(C2)CC(F)(F)C3)CC1` [Example 9-22, (S)-1-(5-Chloro-2-(6,6-difluoro-2-azaspiro[3.3]heptan-2-yl)phenoxy)-N-((6-(3-hydroxypyrrolidin-1-yl)pyridin-2-yl)sulfonyl)cyclopropanecarboxamide], in that order: 139%, 4460 nM, 82.1% and 1760 nM.
For `Cc1ccc(OC2CCC3CCCCC3C2)c(OC2(C(=O)NS(=O)(=O)c3cccc(N4CC[C@H](O)C4)n3)CC2)c1` (stereo partly drawn) [Example 6-9, 1-(2-((decahydronaphthalen-2-yl)oxy)-5-methylphenoxy)-N-((6-((S)-3-hydroxypyrrolidin-1-yl)pyridin-2-yl)sulfonyl)cyclopropanecarboxamide], in that order: 382%, 1280 nM, 107.4% and 289 nM.
In the case of `C[C@]1(O)CCN(c2cccc(S(=O)(=O)NC(=O)C3(Oc4cc(Cl)ccc4C4CC5(CCC5)C4)CC3)n2)C1` (single isomer, unassigned) [Example 7-2-1], at delF508-CFTR-HRP, the Emax came out at 674% and it took 1420 nM to reach a half-maximal effect (EC50). Moreover, at delF508-CFTR, the “MTECC24 CFHBEC-Amax %” value is reported as 214.4% and the concentration for a half-maximal effect (EC50) stood at 289 nM.
Turning to `Cc1ccc([C@H]2CC[C@@H](F)CC2)c(OC2(C(=O)NS(=O)(=O)c3cccc(N4CC(C)(O)C4)n3)CC2)c1` (single isomer, unassigned) [Example 4-23, 1-(2-(Cis-4-fluorocyclohexyl)-5-methylphenoxy)-N-((6-(3-hydroxy-3-methylazetidin-1-yl)pyridin-2-yl)sulfonyl)cyclopropane-1-carboxamide], on delF508-CFTR-HRP, the Emax came out at 292% and the EC50 is 4160 nM. For the same compound, on delF508-CFTR, the “MTECC24 CFHBEC-Amax %” value is recorded as 138% and the EC50 came to 167 nM.
In the case of `Cc1ccc(C2CCCCC2)c(OC2(C(=O)NS(=O)(=O)c3cccc(NCC(C)O)n3)CC2)c1` (stereo not drawn) [Example 2-45, 1-(2-Cyclohexyl-5-methylphenoxy)-N-((6-((2-hydroxypropyl)amino)pyridin-2-yl)sulfonyl)cyclopropane-1-carboxamide], at delF508-CFTR-HRP, the Emax came out at 816% and the EC50 was found to be 2230 nM. Moreover, at delF508-CFTR, the “MTECC24 CFHBEC-Amax %” value was 95% and the EC50 came out at 6 nM.
For the compound `Cc1ccc(C2CCC(F)(F)CC2)c(OC2(C(=O)NS(=O)(=O)c3cccc(N4CCC5(CC4)CC(=O)c4cc(F)ccc4N5)n3)CC2)c1` [Example 3-1, 1-(2-(4,4-Difluorocyclohexyl)-5-methylphenoxy)-N-((6-(6′-fluoro-4′-oxo-3′,4′-dihydro-1′H-spiro[piperidine-4,2′-quinolin]-1-yl)pyridin-2-yl)sulfonyl)cyclopropanecarboxamide], on delF508-CFTR-HRP, the Emax turned out to be 184% and the EC50 stood at 3070 nM. On delF508-CFTR, the “MTECC24 CFHBEC-Amax %” value is given as 34% and the EC50 was 28 nM.
On to `Cc1ccc(C2CCCCC2)c(OC2(C(=O)NS(=O)(=O)c3cccc(N4CCN(C(=O)OC(C)(C)C)CC4)n3)CC2)c1` [Example 2-34, Tert-butyl 4-(6-(N-(1-(2-cyclohexyl-5-methylphenoxy)cyclopropanecarbonyl)sulfamoyl)pyridin-2-yl)piperazine-1-carboxylate], for which, on delF508-CFTR-HRP, the Emax came to 366% and the response was half-maximal at 1100 nM (EC50). On delF508-CFTR, the “MTECC24 CFHBEC-Amax %” value amounted to 57% and the EC50 worked out at 15 nM.
For the compound `Cc1ccc(C2(C)CC2)c(OC2(C(=O)NS(=O)(=O)c3cccc(NC[C@H](C)O)n3)CC2)c1` [Example 4-16, (S)-N-((6-((2-Hydroxypropyl)amino)pyridin-2-yl)sulfonyl)-1-(5-methyl-2-(1-methylcyclopropyl)phenoxy)cyclopropane-1-carboxamide], at delF508-CFTR-HRP, the Emax is 113% and the EC50 amounted to 3460 nM. Besides, on delF508-CFTR, the “MTECC24 CFHBEC-Amax %” value is 48% and the EC50 was found to be 9 nM.
On to `O=C(NS(=O)(=O)c1cccc(N2CCC(O)(C(F)(F)F)CC2)n1)C1(Oc2cc(Cl)ccc2C2CC3(CCC3)C2)CC1` [Example 7-1, 1-(5-Chloro-2-(spiro[3.3]heptan-2-yl)phenoxy)-N-((6-(4-hydroxy-4-(trifluoromethyl)piperidin-1-yl)pyridin-2-yl)sulfonyl)cyclopropanecarboxamide], for which, at delF508-CFTR-HRP, the Emax amounted to 445% and a half-maximal response (EC50) required 490 nM. On delF508-CFTR, the “MTECC24 CFHBEC-Amax %” value stood at 203.8% and the EC50 was determined as 132 nM.
For `Cc1ccc(C2CCCCCC2)c(OC2(C(=O)NS(=O)(=O)c3cccc(N)n3)CC2)c1` [Example 1-6, N-((6-Aminopyridin-2-yl)sulfonyl)-1-(2-cycloheptyl-5-methylphenoxy)cyclopropane-1-carboxamide], in that order: 765%, 1310 nM, 87% and 2 nM.
With `Cc1ccc(C2CCCCC2)c(OC2(C(=O)NS(=O)(=O)c3cccc(N4CCC(N)(C(F)(F)F)CC4)n3)CC2)c1` [Example 2-17, N-((6-(4-Amino-4-(trifluoromethyl)piperidin-1-yl)pyridin-2-yl)sulfonyl)-1-(2-cyclohexyl-5-methylphenoxy)cyclopropanecarboxamide], on delF508-CFTR-HRP, the Emax is 503% and the EC50 came to 730 nM. Further, on delF508-CFTR, the “MTECC24 CFHBEC-Amax %” value came out at 90% and the EC50 stood at 4 nM.
For `COc1ccc(C2CCC(F)(F)CC2)c(OC2(C(=O)NS(=O)(=O)c3cccc(N4CCC[C@H](CO)C4)n3)CC2)c1` [Example 3-7, (S)-1-(2-(4,4-Difluorocyclohexyl)-5-methoxyphenoxy)-N-((6-(3-(hydroxymethyl)piperidin-1-yl)pyridin-2-yl)sulfonyl)cyclopropane-1-carboxamide], in that order: 258%, 3410 nM, 51% and 35 nM.
For `Cc1ccc(C2CCCCC2)c(OC2(C(=O)NS(=O)(=O)c3cccc(N4CCC(C)(N)CC4)n3)CC2)c1` [Example 2-9, N-((6-(4-Amino-4-methylpiperidin-1-yl)pyridin-2-yl)sulfonyl)-1-(2-cyclohexyl-5-methylphenoxy)cyclopropanecarboxamide], on delF508-CFTR-HRP, the Emax turned out to be 253% and the EC50 is 2570 nM. In addition, at delF508-CFTR, the “MTECC24 CFHBEC-Amax %” value amounted to 121% and the EC50 is 103 nM.
On to `Cc1ccc(C2CCCCC2)c(OC2(C(=O)NS(=O)(=O)c3cccc(N4CCNC(=O)C4)n3)CC2)c1` [Example 2-33, 1-(2-Cyclohexyl-5-methylphenoxy)-N-((6-(3-oxopiperazin-1-yl)pyridin-2-yl)sulfonyl)cyclopropanecarboxamide], for which, at delF508-CFTR-HRP, the Emax was determined as 114% and a half-maximal response (EC50) required 3960 nM. Moreover, at delF508-CFTR, the “MTECC24 CFHBEC-Amax %” value came to 46% and the EC50 was 66 nM.
As to `Cc1ccc(C2CCCCC2)c(OC2(C(=O)NS(=O)(=O)c3cccc(N4CCC5(CC4)CC(=O)c4cc(F)ccc4O5)n3)CC2)c1` [Example 2-28, 1-(2-Cyclohexyl-5-methylphenoxy)-N-((6-(6-fluoro-4-oxospiro[chroman-2,4′-piperidin]-1′-yl)pyridin-2-yl)sulfonyl)cyclopropanecarboxamide], at delF508-CFTR-HRP, the Emax was 429% and the EC50 came out at 530 nM. Also, on delF508-CFTR, the “MTECC24 CFHBEC-Amax %” value was 83% and the EC50 amounted to 49 nM.
`CC1(C)CCN(c2ccc(Cl)cc2OC2(C(=O)NS(=O)(=O)c3cccc(N4CCC(O)CC4)n3)CC2)CC1` [Example 9-41, 1-(5-Chloro-2-(4,4-dimethylpiperidin-1-yl)phenoxy)-N-((6-(4-hydroxypiperidin-1-yl)pyridin-2-yl)sulfonyl)cyclopropane-1-carboxamide]: on delF508-CFTR-HRP, the Emax was found to be 656% and the EC50 was found to be 1580 nM. Besides, on delF508-CFTR, the “MTECC24 CFHBEC-Amax %” value stood at 79.3% and the EC50 was 290 nM.
